B1: FIP: fungal immunomodulatory protein isolated from Flammalina velutipes, amino acid sequence ID No. 3 (protein)
chain: SATSLTFQLAVLVKKIDFDYTPNWGRGTPSSYIDNLTFPKVLTDKKYSYRVVVNGSDLGVESNFAVTPSGGQTINFLQYNKGYGVADTKTIQVFVVIPDTGNSEEYIIAEWKKT
modifications: Flammalina velutipes

Columns and labels:
Assay type in all cases: in vivo
[1] = tested on: Balb/c mice; test: Dp2 specific IgG1, IgG2a and IgE in sera (ELISA) after LNIT; settings: for Dp2 specific IgG1 production in the sera: Example 1, FIG. 2A; for Dp2 specific IgG1 production in the sera / Dp2 specific IgG2a production in the sera / Dp2 specific IgE production in the sera: compared with NS group; for Dp2 specific IgG2a production in the sera: Example 1, FIG. 2B; for Dp2 specific IgE production in the sera: Example 1, FIG. 2C
Method: Male Balb/c mice were obtained from the National Laboratory Breeding Research Center in Taiwan and were raised in a specific pathogen-free environment. The mice used were between six and eight weeks of age. Groups of six mice were caged separately according to their treatment. Recombinant Dermatophoides pteronyssinus group 2 (rDp2) was prepared as previously described(Tsai J J, et al. Int Arch Allergy Immunol 2000;121:205-10). Dp2 28-40 and Dp2 28-40A were obtained from Dr. Jonathan Lamb (Respiratory Medicine Unit, Edinburgh University, Medical School, Edinburgh, UK) (Verhoef A, and Lamb J R. J Immunol 2000;164:6034-6040). FIP was obtained from Dr. Ko Jiunn-Liang (Institute of Toxicology, Chung Shan Medical University, Taichung, R O C) (J L Ko, et al. Eur. J. Biochem. 1995;228:244-249).
(§1) Mice were immunized by way of an intraperitoneal (IP) injection of 1 μg/0.1 mL rDp2 emulsified in 4.0 mg/0.062mL aluminum hydroxide Al(OH)3 (Whitehall Lab Ltd. Punchbowl, NSW, Australia) on day 0 and day 7. Following immunization, local nasal immunotherapy (LNIT) was conducted daily from day 14 to day 35 with Dp2 28-40, Dp2 28-40A, FIP alone or FIP mixed with either Dp2 28-40 or Dp2 28-40A (FIP, 50 μg/mouse/day; Dp2 peptide, 1 μg/20 μL) in PBS with 10% glycerol. Normal saline (NS) and irrelevant allergen Bt were used as a negative control. […] On day 28, mice were lightly anesthetized with an IP injection of 60 mg/kg of sodium pentobarbital (Sigma Chemical Co., St Louis, Mo., U.S.A.) and inoculated intratracheally (IT) with 1 μg/50 μL of rDp 2 on day 28 and day 35. Two days subsequent to the second IT inoculation, the mice were sacrificed following the assessment of their pulmonary function (FIG. 1).
Blood was obtained from the retro-orbital venous plexus at the commencement and end of the experimental program. Serum IgE, IgG1 and IgG2a titers of anti-Dp2 antibodies were determined using an enzyme-linked immunosorbent assay (ELISA) technique. Microtiter plates (Nunc Lab, Ill., U.S.A.) were coated with 100 μL Dp2 overnight at a concentration of 0.5 μg/mL and left in a 4° C. refrigerator. Microtiter-plate nonspecific binding sites were blocked with 3% BSA in PBS for two hours at room temperature. Plates were washed with PBS-Tween-20 (PBST) three times and stored at −70° C. prior to subsequent use. Subsequent to the addition of a 1:5 dilution for IgE, a 1:100 dilution for IgG1 and a 1:5 dilution for IgG2a of mice serum, plates were incubated at 4° C. overnight, and then washed three times before the antibody (Horse radish peroxidase-conjugated goat anti-mouse IgE and IgG2a Ab 1:800, IgG1 Ab 1:2,000 Southern Biotech Assoc, Inc, Birmingham, Ala., U.S.A.) was added. Following a one-hour incubation at 37° C. and three washes with PBST, the enzyme substrate (2,2″-Azino-bis(3-ethylbenzothiazolin-6-sulfonic acid diammonium salt; Bio-Rad, USA) was added. The reaction was stopped using 50 μL 4N H2SO4 after the reaction had been allowed to continue for 15 minutes, following which the optical density was measured at 450nm using a multiscan spectrophotometer (model A-5682, SLT Lab Instruments, Salzburg, Austria). Results were expressed as ELISA units (EU), one EU being defined as the reciprocal value of the serum dilution that elicited an optical density of 1.0. Such a value was selected so as to always lie within the linear component of the dilution curve. To assure reproducibility, a known serum was included with each test as a standard.

[2] = tested on: Balb/c mice; test: Pulmonary function: airway hypersensitivity to methacholine (Penh, barometric plethysmograph) after LNIT; settings: compared to NS; for Penh after methacholine challenge, early phase: Example 1, FIG. 5A, 30 min after rDp2 IT challenge; for Penh after methacholine challenge, late phase: Example 1, FIG. 5B, 24hrs after rDp2 IT challenge
Method: as §1
Each mouse was placed inside a barometric plethysmograph (Buxco Electronics, Troy, N.Y.). The plethysmograph has two chambers: one is the main or animal chamber (ID 7.5 cm and 5.5 cm height) and the other is the reference chamber (ID 7.5 cm and 3.5 cm height). A differential pressure transducer was employed to detect the pressure difference between the two chambers. The pressure signal was amplified, digitized via an A/D convert card, and sent to a computer with a BioSystem XA program (Buxco, Electronics, Troy, N.Y.), which sampled and calculated the desired respiratory parameters. These parameters were enhanced pause (Penh), tidal volume, breathing frequency, peak inspiratory flow, peak expiratory flow, end-inspiratory pause, and end-expiratory pause.
Aerosol was generated by placing 5 mL of saline or methacholine (Sigma, 1.56 to 25.00 mg/mL) solution in the cup of an ultrasonic nebulizer (DeVilbiss, Somerset, Pa.). It was delivered via a connecting tube and a three-way connector to the animal chamber of the plethysmograph (Hamelmann E, et al. Am J Respir Crit Care Med. 1997;156:766-75). The median size of the aerosol was approximately 3 μm and the range of the sizes was from 1 to 5 μm, according to the manufacturers information. The aerosol usually filled the chamber within 15-20 sec. At first, each mouse inhaled saline aerosol for 3 min. Then the respiratory parameters were measured for 3 min. Then, inhalation of the saline aerosol was replaced by inhalation of the aerosol of methacholine solution for 3 min. In both cases, the aerosol in the chamber was cleared immediately after the exposure. Respiratory parameters were then measured for 3 min following the inhalation of methacholine. A dose-response curve for methacholine was calculated starting from a low dose of 0.031 mg/dL and moving to a higher dose of 25 mg/dL. There was a 15 min interval between exposures. The percentage changes of Penh obtained from each dose of mechacholine were accumulated area under the curve and the values were calculated as means±SEM. Differences in parameters among groups were analyzed by variance.

[3] = tested on: Balb/c mice; test: Free radical production in BALF (chemiluminescence) after LNIT; settings: FIG. 4, chemiluminescence, expressed as counts/10 seconds, compared to NS control
Method: as §1
Using chemiluminescence, free radicals in the BAL fluid were measured immediately after each experiment. The total amounts of free radical were detected and expressed as counts/10 seconds.

| Molecule | Dp2 specific IgG1 production in the sera [1] | Dp2 specific IgG2a production in the sera [1] | Dp2 specific IgE production in the sera [1] | Penh after methacholine challenge, early phase [2] | Penh after methacholine challenge, late phase [2] | free radical production in the BAL fluid [3] | Dp2 specific IgG1 production in sera ([1]; Example 2, FIG. 7A, compared with NS) | Dp2 specific IgG2a production in sera ([1]; Example 2, FIG. 7B, compared with NS) | Dp2 specific IgE production in sera ([1]; Example 2, FIG. 7C, compared with NS) | penh, early phase ([2]; Example 2, FIG. 8A, 30 min after rDp2 intratracheal challenge) | penh, late phase ([2]; Example 2, FIG. 8B, 24 hr) |
| --- | --- | --- | --- | --- | --- | --- | --- | --- | --- | --- | --- |
| Dp2 28-40A: altered TCR ligand of Dp2 28-40, residues at positions 34 and 36 substituted by alanine; amino acid sequence ID No. 2 (IIHRGKAFALEAV; listed as Dermatophoides pteronyssinus) | significantly reduced | increased | reduction of IgE was observed only in the group of Dp2 28-40 | significantly decreased | significantly decreased | – | – | – | – | – | – |
| Dp2 28-40: Dermatophoides pteronyssinus group 2 (Dp2) epitope peptide, residues 28-40, amino acid sequence ID No. 1 (IIHRGKPFQLEAV; listed as Dermatophoides pteronyssinus) | significantly reduced | increased | reduction of IgE | significantly decreased | significantly decreased | significantly inhibited | – | – | – | – | – |
| B1 | – | – | – | – | – | – | significantly reduced | significantly increased | significantly reduced | significantly decreased | did not reach a statistically significant level |

Reference: US20040071718A1, “Local nasal immunotherapy for allergen-induced airway inflammation” (priority 2002, published 2004)
